Where “and” joins values, the source holds several entries; their conditions need not be identical. Identical values can stand only once.
Tests used:
Assay type in all cases: in vivo
[1] = test system: 3395IR (homozygous XA17 imi-resistant corn line); test: Greenhouse spray test of corn lines with imidazolinone herbicides, injury score; details: for Score, individual plants (0 dead plants, 5 healthy plants with no injury): 16 days after treatment; for M.S.: score 0 (dead) to 5 (healthy), 16 days
Description: (§1) Grow one corn plant per pot (5×5 inch) in a 3×5 flat till three- to four-leaf stage (about 9 to 13 days depending on the weather). On the day of spraying, water the plants well and let excess water drip out. Spray plants on a belt-sprayer with the imidazolinone herbicides at desired rates. […] When temperature was too high, base water plants to prevent wilting. Closely observe the plants for the next two to three weeks. Symptoms of herbicide injury will be visible three days after spraying and susceptible plants will die within two to three weeks depending on temperature.
(§2) The plants were rated on a scale of 0-5 with 0 for dead plants and 5 for healthy plants with no or minimum injury.
(§3) Two transgenic hybrids BAa-4 and MAa-7 lines (see FIG. 5 for their pedigree), a non-transformed control line B×A (B73×A188), 8962IT (heterozygous XI12 imi-tolerant corn line), 8962 (wild type control) and 3395IR (homozygous XA17 imi-resistant corn line) (8962IT and 8962 were from ICI, now Garst Seed Company, Slater, Iowa 50244, and 3395IR was from Pioneer Hi-Bred International Inc, Iowa 50306-3453). Plants were sprayed with 4, 8, 16 or 20×PURSUIT® imazethapyr, ARSENAL® imazapyr, CADRE® imazameth or RAPTOR® imazamox. Plants were scored 0 to 5 (with 0 being dead plants, 5 being healthy plants with no injury) individually 16 days after herbicide treatments. […] For the four tested imidazolinones, transgenic plants could tolerate higher rates of ARSENAL® imazapyr, PURSUIT® imazethapyr, than CADRE® imazameth and RAPTOR® imazamox.

[2] = test system: non-transformed control corn line BxA (B73×A188); test: as above; details: for Score, individual plants (0 dead plants, 5 healthy plants with no injury): 16 days after treatment; for M.S.: score 0 (dead) to 5 (healthy), 16 days
Description: as §1, §2, §3

[3] = test system: transgenic corn hybrid BAa-4; test: as above; details: for Score, individual plants (0 dead plants, 5 healthy plants with no injury) / M.S.: BAa-4; for Score, individual plants (0 dead plants, 5 healthy plants with no injury): 16 days after treatment; for M.S.: score 0 (dead) to 5 (healthy), 16 days
Description: as §1, §2, §3

[4] = test system: transgenic corn hybrid MAa-7; test: as above; details: for Score, individual plants (0 dead plants, 5 healthy plants with no injury) / M.S.: MAa-7; for Score, individual plants (0 dead plants, 5 healthy plants with no injury): 16 days after treatment; for M.S.: score 0 (dead) to 5 (healthy), 16 days
Description: as §1, §2, §3

[5] = test system: 8692 (wild type control corn line); test: as above; details: for Score, individual plants (0 dead plants, 5 healthy plants with no injury): 16 days after treatment; for M.S.: score 0 (dead) to 5 (healthy), 16 days
[6] = test system: 8692IT (heterozygous XI12 imi-tolerant corn line); test: as above; details: for Score, individual plants (0 dead plants, 5 healthy plants with no injury): 16 days after treatment; for M.S.: score 0 (dead) to 5 (healthy), 16 days
[7] = test system: rice plants (transgenic Lines 26 and 29; Nt control); test: Greenhouse herbicide tests on rice; details: for average seed set in two transgenic lines: PURSUIT, RAPTOR, CADRE, SCEPTER at all rates tested, ARSENAL 1 to 2×; for rate at which growth of transgenic plants was slightly affected: post-emergence, fresh weight and visual observation
Description: We evaluated the response of transgenic rice to PURSUIT® imazethapyr application in the greenhouse. In this experiment, we included 2 transgenic lines and their untransformed counterpart (Nt). The transgenic lines, designated as Line 26 and 29, were T3 progeny derived from previously identified homozygous resistant transgenic plants containing the maize XI12 ahas2 gene driven by its own promoter. All seeds were pre-germinated in water for 2-3 days then grown in a planting mixture consisting of 1:1 soil and MetroMix 360 (The Scotts Company, Marysville, Ohio 43040) in 6-inch pots (2 seeds per pot) in the greenhouse and sprayed with PURSUIT® imazethapyr at 63, 125, or 250 g ai/ha. For post-emergence application, the plants were sprayed 15 days after seeding, at which time most plants had 3 leaves. For pre-emergence treatment, PURSUIT® imazethapyr was sprayed one day after seeding. Each treatment contained 20 plants and, and 3 replicates per treatment. One set of materials was not sprayed and used as control. The plants were grown in the greenhouse and harvested at maturity. The amount of PURSUIT® imazethapyr applied in this study (63, 125, or 250 g ai/ha) was close to 1, 2 or 4× field application rate for imi-resistant corn (refer to Table 3) since PURSUIT® imazethapyr is not currently labeled for use in rice fields. A custom designed belt sprayer was operated as described (Newhouse et al. 1992) for all herbicide applications. Five plants from each treatment were randomly chosen and individually measured for morphological traits. Means and standard deviations were calculated over three replications. Plant heights were measured from the base of the plant to the tip of the flag leaf 93 days after herbicide applications (DAH) and number of tillers per plant were counted 102-103 DAH. Data on number of panicles per plant and yield were collected after plants were harvested.
A total of 9 herbicides, 5 imidazolinones, two rice herbicides and ACCENT® (nicosulfuron) and CLASSIC® (clorimuron-ethyl) were applied in this study. Materials and methods were basically the same as described above, except that instead of 6″ pots, flats with 18 (3″×3″ per cell) cells were used, and 10-12 seeds were planted to one 3″×3″ cell. Ten plants were maintained in one cell in the post-emergence application. Each herbicide was sprayed at 4 different rates, 1, 2, 4, and 6×, as either pre or post-emergence applications with three replications per treatment. The name and amount of herbicide applied in this experiment and information relevant to their commercial applications are listed in Table 3. For simplicity and convenience, the lowest concentration used is referred as 1× rate, 2, 4 and 6× rates can be calculated as multiples of 1×.
To monitor plant response to various herbicides, data on fresh weight was collected. For pre-emergence applications, all plants from one cell were harvested 32 days after spraying (36-day old plants) and weighed. Twenty-nine days after herbicide application, 5 plants (44-day old plants) from each cell in the post-emergence application, were cut and weighed individually. Mean fresh weight for each treatment was calculated over three replications. The remaining 5 plants were grown in the greenhouse to maturity at which time, panicles of 3 plants were collected, and number of filled seeds and number of total kernels were counted to determine percentage of seed set.

[8] = 4×: PURSUIT 250, RAPTOR 160, ARSENAL 96, CADRE 400 g/ha
[9] = 8×: PURSUIT 500, RAPTOR 320, ARSENAL 192, CADRE 800 g/ha
[10] = 16×: RAPTOR 640 g/ha, ARSENAL 384 g/ha, CADRE 1.6 kg/ha

With `CCc1cnc(C2=NC(C)(C(C)C)C(=O)N2)c(C(=O)O)c1` (centres unmarked) [PURSUIT ®, imazethapyr] the “Score, individual plants (0 dead plants, 5 healthy plants with no injury)” value [1, 8] was 5, the M.S. [1, 8] was 5 and the “Score, individual plants (0 dead plants, 5 healthy plants with no injury)” value [1, 9] was 5. The M.S. [1, 9] was 5, the “Score, individual plants (0 dead plants, 5 healthy plants with no injury)” value ([1]; 20×: PURSUIT 1.25 kg/ha) was 5 and the M.S. ([1]; 20×: PURSUIT 1.25 kg/ha) was 5. The “Score, individual plants (0 dead plants, 5 healthy plants with no injury)” value [2, 8] was 0, the M.S. [2, 8] was 0 and the “Score, individual plants (0 dead plants, 5 healthy plants with no injury)” value [2, 9] was 0. For the same compound, the M.S. [2, 9] was 0, the “Score, individual plants (0 dead plants, 5 healthy plants with no injury)” value ([2]; 20×: PURSUIT 1.25 kg/ha) was 0 and the M.S. ([2]; 20×: PURSUIT 1.25 kg/ha) was 0. For the same compound, the “Score, individual plants (0 dead plants, 5 healthy plants with no injury)” value [3, 8] was 5, the M.S. [3, 8] was 5 and the “Score, individual plants (0 dead plants, 5 healthy plants with no injury)” value [3, 9] was 5. For the same compound, the M.S. [3, 9] was 5, the “Score, individual plants (0 dead plants, 5 healthy plants with no injury)” value ([3]; 20×: PURSUIT 1.25 kg/ha) was 4 (3×) and 3 and 2 and the M.S. ([3]; 20×: PURSUIT 1.25 kg/ha) was 3.4. For the same compound, the “Score, individual plants (0 dead plants, 5 healthy plants with no injury)” value [4, 8] was 5, the M.S. [4, 8] was 5 and the “Score, individual plants (0 dead plants, 5 healthy plants with no injury)” value [4, 9] was 5. The M.S. [4, 9] was 5, the “Score, individual plants (0 dead plants, 5 healthy plants with no injury)” value ([4]; 20×: PURSUIT 1.25 kg/ha) was 0 and 3 and 2 (2×) and 4 and the M.S. ([4]; 20×: PURSUIT 1.25 kg/ha) was 2.2. For the same compound, the “Score, individual plants (0 dead plants, 5 healthy plants with no injury)” value [5, 8] was 2 (3×) and 1 (2×), the M.S. [5, 8] was 1.6 and the “Score, individual plants (0 dead plants, 5 healthy plants with no injury)” value [5, 9] was 0. The M.S. [5, 9] was 0, the “Score, individual plants (0 dead plants, 5 healthy plants with no injury)” value ([5]; 20×: PURSUIT 1.25 kg/ha) was 0 and the M.S. ([5]; 20×: PURSUIT 1.25 kg/ha) was 0. For the same compound, the “Score, individual plants (0 dead plants, 5 healthy plants with no injury)” value [6, 8] was 5, the M.S. [6, 8] was 5 and the “Score, individual plants (0 dead plants, 5 healthy plants with no injury)” value [6, 9] was 5 (4×) and 4. The M.S. [6, 9] was 4.8, the “Score, individual plants (0 dead plants, 5 healthy plants with no injury)” value ([6]; 20×: PURSUIT 1.25 kg/ha) was 4 (4×) and 3 and the M.S. ([6]; 20×: PURSUIT 1.25 kg/ha) was 3.8. For the same compound, the “average seed set in two transgenic lines” value [7] was “about 85%”, the “rate at which growth of transgenic plants was slightly affected” value [7] was 6 × and the “fate of transgenic plants of Lines 26 and 29” value ([7]; pre-emergence, 63, 125, 250 g/ha) was “survived at all rates applied”.

For `COCc1cnc(C2=NC(C)(C(C)C)C(=O)N2)c(C(=O)O)c1` (centres unmarked) [RAPTOR ®, imazamox], the “Score, individual plants (0 dead plants, 5 healthy plants with no injury)” value [1, 8] was 5, the M.S. [1, 8] was 5 and the “Score, individual plants (0 dead plants, 5 healthy plants with no injury)” value [1, 9] was 5. For the same compound, the M.S. [1, 9] was 5, the “Score, individual plants (0 dead plants, 5 healthy plants with no injury)” value [1, 10] was 5 and the M.S. [1, 10] was 5. The “Score, individual plants (0 dead plants, 5 healthy plants with no injury)” value [2, 8] was 0, the M.S. [2, 8] was 0 and the “Score, individual plants (0 dead plants, 5 healthy plants with no injury)” value [2, 9] was 0. The M.S. [2, 9] was 0, the “Score, individual plants (0 dead plants, 5 healthy plants with no injury)” value [2, 10] was 0 and the M.S. [2, 10] was 0. For the same compound, the “growth of transgenic line BAa-4” value ([3]; 4× (160 g/ha)) was “slightly affected”, the “Score, individual plants (0 dead plants, 5 healthy plants with no injury)” value [3, 8] was 3 and 4 (4×) and the M.S. [3, 8] was 3.8. For the same compound, the “Score, individual plants (0 dead plants, 5 healthy plants with no injury)” value [3, 9] was 4 (4×) and 0, the M.S. [3, 9] was 3.2 and the “Score, individual plants (0 dead plants, 5 healthy plants with no injury)” value [3, 10] was 3 and 0 (3×) and 1. For the same compound, the M.S. [3, 10] was 0.8, the “performance of transgenic line MAa-7” value ([4]; 4× (160 g/ha)) was “performed well” and the “Score, individual plants (0 dead plants, 5 healthy plants with no injury)” value [4, 8] was 4 and 5 (4×). The M.S. [4, 8] was 4.8, the “Score, individual plants (0 dead plants, 5 healthy plants with no injury)” value [4, 9] was 3 (3×) and 2 and 4 and the M.S. [4, 9] was 3. The “Score, individual plants (0 dead plants, 5 healthy plants with no injury)” value [4, 10] was 1, the M.S. [4, 10] was 1 and the “Score, individual plants (0 dead plants, 5 healthy plants with no injury)” value [5, 8] was 0. For the same compound, the M.S. [5, 8] was 0, the “Score, individual plants (0 dead plants, 5 healthy plants with no injury)” value [5, 9] was 0 and the M.S. [5, 9] was 0. The “Score, individual plants (0 dead plants, 5 healthy plants with no injury)” value [5, 10] was 0, the M.S. [5, 10] was 0 and the “Score, individual plants (0 dead plants, 5 healthy plants with no injury)” value [6, 8] was 4 and 3 (3×) and 2. For the same compound, the M.S. [6, 8] was 3, the “Score, individual plants (0 dead plants, 5 healthy plants with no injury)” value [6, 9] was 3 (2×) and 2 (2×) and the M.S. [6, 9] was 2.5. For the same compound, the “Score, individual plants (0 dead plants, 5 healthy plants with no injury)” value [6, 10] was 2 (2×) and 1 and 0 (2×), the M.S. [6, 10] was 1 and the “average seed set in two transgenic lines” value [7] was “about 85%”. The “rate at which growth of transgenic plants was slightly affected” value [7] was 6 × and the “rate at which growth of both transgenic lines was affected” value ([7]; pre-emergence) was 6 ×.
